We go through 36 compounds from patent publication US8299065B2, “Antibacterial condensed thiazoles” (Biota Europe Ltd., priority 2007, dated 2012).

In brackets after ≈: the same amount, converted by molar mass.

The first assay has as its system Enterococcus faecalis ATCC 29212. As to the kind of experiment: MIC testing against Enterococcus faecalis ATCC 29212. It counts as cell-based.
Conditions: not given
The procedure: Minimum Inhibitory Concentration (MIC) Testing Compounds of this invention were tested for antimicrobial activity by susceptibility testing in liquid or on solid media. MICs for compounds against each strain were determined by the broth microdilution or agar dilution method according to the guidelines of the Clinical Laboratories and Standards Institute, formerly the National Committee for Clinical Laboratory Standards (Clinical Laboratories and Standards Institute. Methods for Dilution Antimicrobial Susceptibility Tests for Bacteria That Grow Aerobically; Approved Standard—Seventh Edition. Document M7-A7. CLSI, Wayne, Pa., 2006; Clinical Laboratories and Standards Institute. Methods for Antimicrobial Susceptibility Testing of Anaerobic Bacteria; Approved Standard—Sixth Edition. Document M11-A6. CLSI, Wayne, Pa., 2004).
As to “tert-butyl 3-((4-(2-(3-ethylureido)-6-fluorobenzo[d]thiazol-5-yl)-5-yl)-2,2′-dioxo-2H-1,4′-bipyridin-1′(2′H)-yl)methyl)piperidine-1-carboxylate [Example 64]”, the “MICs against Enterococcus faecalis, Activity” value is “B (MICs of 0.25-1 μg/ml)”.

The assay is the same for the next values; noted with them: ATCC29212, read-out: MICs against Enterococcus faecalis, Activity.
Take `CCNC(=O)Nc1nc2cc(-c3cnc(N4CCC(C(=O)OC)CC4)nc3)c(F)cc2s1` [Example 43, methyl 1-(5-(2-(3-ethylureido)-6-fluorobenzo[d]thiazol-5-yl)pyrimidin-2-yl)piperidine-4-carboxylate]: the MIC lay in the range of 0.25 to 1 µg/mL (≈ 0.545 to 2.18 µM). Same read-out and setting: to `CCNC(=O)Nc1nc2cc(-c3cnc(N4CCC(C(=O)O)CC4)nc3)c(F)cc2s1` [Example 44, 1-(5-(2-(3-ethylureido)-6-fluorobenzo[d]thiazol-5-yl)pyrimidin-2-yl)piperidine-4-carboxylic acid] belongs < 0.25 µg/mL; to `CCNC(=O)Nc1nc2cc(-c3cnc(N4CCCC(C(=O)OC)C4)nc3)c(F)cc2s1` (stereo not drawn) [Example 45, methyl 1-(5-(2-(3-ethylureido)-6-fluorobenzo[d]thiazol-5-yl)pyrimidin-2-yl)piperidine-3-carboxylate], 0.25 to 1 µg/mL (≈ 0.545 to 2.18 µM); to `CCNC(=O)Nc1nc2cc(-c3cnc(N4CCCC(C(=O)O)C4)nc3)c(F)cc2s1` (stereo not drawn) [Example 46, 1-(5-(2-(3-ethylureido)-6-fluorobenzo[d]thiazol-5-yl)pyrimidin-2-yl)piperidine-3-carboxylic acid], 0.25 to 1 µg/mL (≈ 0.562 to 2.25 µM). Turning to `CCNC(=O)Nc1nc2cc(-c3cnn(C(C)C(=O)OC)c3)c(F)cc2s1` (stereo not drawn) [Example 47, methyl 2-(4-(2-(3-ethylureido)-6-fluorobenzo[d]thiazol-5-yl)-1H-pyrazol-1-yl)propanoate], the MIC lay in the range of 2 to 16 µg/mL (≈ 5.11 to 40.9 µM). Take `CCNC(=O)Nc1nc2cc(-c3c[nH]c4ncccc34)c(F)cc2s1` [Example 48, 1-ethyl-3-(6-fluoro-5-(1H-pyrrolo[2,3-b]pyridin-3-yl)benzo[d]thiazol-2-yl)urea]: the MIC fell in the range of 0.25 to 1 µg/mL (≈ 0.703 to 2.81 µM). In the case of `CCNC(=O)Nc1nc2cc(-c3cc(C)n(CC4CCN(C)C4)c(=O)c3)c(F)cc2s1` (stereo not drawn) [Example 50, 1-ethyl-3-(6-fluoro-5-(6-methyl-1-((1-methylpyrrolidin-3-yl)methyl)-2-oxo-1,2-dihydropyridin-4-yl)benzo[d]thiazol-2-yl)urea], the MIC was in the range of 2 to 16 µg/mL (≈ 4.51 to 36.1 µM). For `CCNC(=O)Nc1nc2cc(-c3cc(C)n(CC4CCCCN4C)c(=O)c3)c(F)cc2s1` (stereo not drawn) [Example 51, 1-ethyl-3-(6-fluoro-5-(6-methyl-1-((1-methylpiperidin-2-yl)methyl)-2-oxo-1,2-dihydropyridin-4-yl)benzo[d]thiazol-2-yl)urea], the MIC lay in the range of 2 to 16 µg/mL (≈ 4.37 to 35 µM).

Consider `CCNC(=O)Nc1nc2cc(-c3cc(C)n(Cc4cn(C)cn4)c(=O)c3)c(F)cc2s1` [Example 52, 1-ethyl-3-(6-fluoro-5-(6-methyl-1-((1-methyl-1H-imidazol-4-yl)methyl)-2-oxo-1,2-dihydropyridin-4-yl)benzo[d]thiazol-2-yl)urea], for which the MIC was 0.25 to 1 µg/mL (≈ 0.568 to 2.27 µM). On the same count and under the same terms, the result for `CCNC(=O)Nc1nc2cc(-c3cc(C)n(CC4CCCN4C(=O)OC(C)(C)C)c(=O)c3)c(F)cc2s1` (stereo not drawn) [Example 53, tert-butyl 2-((4-(2-(3-ethylureido)-6-fluorobenzo[d]thiazol-5-yl)-6-methyl-2-oxopyridin-1(2H)-yl)methyl)pyrrolidine-1-carboxylate] reads 2 to 16 µg/mL (≈ 3.78 to 30.2 µM). In the case of `CCNC(=O)Nc1nc2cc(-c3cc(C)n(CCCN(C)C)c(=O)c3)c(F)cc2s1` [Example 54, 1-(5-(1-(3-(dimethylamino)propyl)-6-methyl-2-oxo-1,2-dihydropyridin-4-yl)-6-fluorobenzo[d]thiazol-2-yl)-3-ethylurea], the MIC was in the range of 2 to 16 µg/mL (≈ 4.63 to 37.1 µM).

As for `CCNC(=O)Nc1nc2cc(-c3ccc(-c4noc(C)n4)nc3)c(F)cc2s1` [Example 55, 1-ethyl-3-(6-fluoro-5-(6-(5-methyl-1,2,4-oxadiazol-3-yl)pyridin-3-yl)benzo[d]thiazol-2-yl)urea], the MIC fell in the range of 0.25 to 1 µg/mL (≈ 0.627 to 2.51 µM).

In the case of `CCNC(=O)Nc1nc2cc(-c3cc(OC)ccn3)c(F)cc2s1` [Example 56, 1-ethyl-3-[6-fluoro-5-(4-methoxy-pyridin-2-yl)-benzothiazol-2-yl]-urea], the MIC is 2 to 16 µg/mL (≈ 5.77 to 46.2 µM).

`CCNC(=O)Nc1nc2cc(-c3cnc(N4CCN(C)CC4)nc3)c(F)cc2s1` [Example 57, 1-ethyl-3-(6-fluoro-5-(2-(4-methylpiperazin-1-yl)pyrimidin-5-yl)benzo[d]thiazol-2-yl)urea]: the MIC is 2 to 16 µg/mL (≈ 4.81 to 38.5 µM). Same read-out and setting: the result for `CCNC(=O)Nc1nc2cc(-c3cncc(OC)c3)c(F)cc2s1` [Example 58, 1-ethyl-3-(6-fluoro-5-(5-methoxypyridin-3-yl)benzo[d]thiazol-2-yl)urea] reads 0.25 to 1 µg/mL (≈ 0.722 to 2.89 µM); that for `CCNC(=O)Nc1nc2cc(-c3cncc(O)c3)c(F)cc2s1` [Example 59, 1-ethyl-3-(6-fluoro-5-(5-hydroxypyridin-3-yl)benzo[d]thiazol-2-yl)urea], 0.25 to 1 µg/mL (≈ 0.752 to 3.01 µM); that for `CCNC(=O)Nc1nc2cc(-c3ccc(C(N)=NO)nc3)c(F)cc2s1` [Example 60, 5-(2-(3-ethylureido)-6-fluorobenzo[d]thiazol-5-yl)-N′-hydroxypicolinimidamide], 0.25 to 1 µg/mL (≈ 0.668 to 2.67 µM). For the compound `CCNC(=O)Nc1nc2cc(-c3ccn(C)c(=O)c3)c(F)cc2s1` [Example 61, 1-ethyl-3-(6-fluoro-5-(1-methyl-2-oxo-1,2-dihydropyridin-4-yl)benzo[d]thiazol-2-yl)urea], the MIC fell in the range of 0.25 to 1 µg/mL (≈ 0.722 to 2.89 µM). `CCNC(=O)Nc1nc2cc(-c3ccn(CCN4CCOCC4)c(=O)c3)c(F)cc2s1` [Example 62, 1-ethyl-3-(6-fluoro-5-(1-(2-morpholinoethyl)-2-oxo-1,2-dihydropyridin-4-yl)benzo[d]thiazol-2-yl)urea]: the MIC is 0.25 to 1 µg/mL (≈ 0.561 to 2.24 µM). The same measure, in the same setting: the result for `CCNC(=O)Nc1nc2cc(-c3ccn(CCN(C)C)c(=O)c3)c(F)cc2s1` [Example 63, 1-(5-(1-(2-(dimethylamino)ethyl)-2-oxo-1,2-dihydropyridin-4-yl)-6-fluorobenzo[d]thiazol-2-yl)-3-ethylurea] reads 2 to 16 µg/mL (≈ 4.96 to 39.7 µM); that for `CCNC(=O)Nc1nc2cc(-c3ccc(CO)nc3)c(F)cc2s1` [Example 65, 1-ethyl-3-(6-fluoro-5-(6-(hydroxymethyl)pyridin-3-yl)benzo[d]thiazol-2-yl)urea], 0.25 to 1 µg/mL (≈ 0.722 to 2.89 µM).

As for `CCNC(=O)Nc1nc2cc(-c3ccc(CN4CCOCC4)nc3)c(F)cc2s1` [Example 66, 1-ethyl-3-(6-fluoro-5-(6-(morpholinomethyl)pyridin-3-yl)benzo[d]thiazol-2-yl)urea], the MIC was 2 to 16 µg/mL (≈ 4.81 to 38.5 µM).

Take `CCNC(=O)Nc1nc2cc(-c3ccn(C4CCNC4)c(=O)c3)c(F)cc2s1` (stereo not drawn) [Example 67, 1-ethyl-3-(6-fluoro-5-(2-oxo-1-(pyrrolidin-3-yl)-1,2-dihydropyridin-4-yl)benzo[d]thiazol-2-yl)urea]: the MIC was in the range of 2 to 16 µg/mL (≈ 4.98 to 39.9 µM). As to `CCNC(=O)Nc1nc2cc(-c3ccc(CC(=O)NC)nc3)c(F)cc2s1` [Example 68, 2-{5-[2-(3-ethyl-ureido)-6-fluoro-benzothiazol-5-yl]-pyridin-2-yl}-N-methyl-acetamide], the MIC was 2 to 16 µg/mL (≈ 5.16 to 41.3 µM).

Consider `CCNC(=O)Nc1nc2cc(-c3cncs3)c(F)cc2s1` [Example 69, 1-ethyl-3-(6-fluoro-5-(thiazol-5-yl)benzo[d]thiazol-2-yl)urea], for which the MIC lay in the range of 2 to 16 µg/mL (≈ 6.2 to 49.6 µM).

As to `CCNC(=O)Nc1nc2cc(-c3cnc(S(C)(=O)=O)nc3)c(F)cc2s1` [Example 70, 1-ethyl-3-(6-fluoro-5-(2-(methylsulfonyl)pyrimidin-5-yl)benzo[d]thiazol-2-yl)urea], the MIC was 2 to 16 µg/mL (≈ 5.06 to 40.5 µM). On to `CCNC(=O)Nc1nc2cc(-c3cccnc3)c(OC)cc2s1` [Example 71, 1-ethyl-3-(6-methoxy-5-(pyridin-3-yl)benzo[d]thiazol-2-yl)urea], for which the MIC lay in the range of 0.25 to 1 µg/mL (≈ 0.761 to 3.05 µM). With `CCNC(=O)Nc1nc2cc(-c3ccn(C)c(=O)c3)c(OC)cc2s1` [Example 72, 1-ethyl-3-(6-methoxy-5-(1-methyl-2-oxo-1,2-dihydropyridin-4-yl)benzo[d]thiazol-2-yl)urea], the MIC lay in the range of 0.25 to 1 µg/mL (≈ 0.697 to 2.79 µM). Regarding `CCNC(=O)Nc1nc2cc(-c3cccnc3)c(C)cc2s1` [Example 73, 1-ethyl-3-(6-methyl-5-(pyridin-3-yl)benzo[d]thiazol-2-yl)urea], the MIC fell in the range of 2 to 16 µg/mL (≈ 6.4 to 51.2 µM).

As to `CCNC(=O)Nc1nc2cc(-c3ccn(C)c(=O)c3)c(C)cc2s1` [Example 74, 1-ethyl-3-(6-methyl-5-(1-methyl-2-oxo-1,2-dihydropyridin-4-yl)benzo[d]thiazol-2-yl)urea], the MIC lay in the range of 0.25 to 1 µg/mL (≈ 0.73 to 2.92 µM).

Regarding `CCNC(=O)Nc1nc2cc(-c3cccnc3)cnc2s1` [Example 75, 1-ethyl-3-(6-(pyridin-3-yl)thiazolo[5,4-b]pyridin-2-yl)urea], the MIC was 2 to 16 µg/mL (≈ 6.68 to 53.4 µM). Same read-out and setting: the result for `CCNC(=O)Nc1nc2cc(-c3ccc(NC(C)=O)nc3)cnc2s1` [Example 76, N-(5-(2-(3-ethylureido)thiazolo[5,4-b]pyridin-6-yl)pyridin-2-yl)acetamide] reads 2 to 16 µg/mL (≈ 5.61 to 44.9 µM); that for `CCNC(=O)Nc1nc2cc(-c3cc(C)oc(=O)c3)cnc2s1` [Example 77, 1-ethyl-3-(6-(6-methyl-2-oxo-2H-pyran-4-yl)thiazolo[5,4-b]pyridin-2-yl)urea], 2 to 16 µg/mL (≈ 6.05 to 48.4 µM); that for `CCNC(=O)Nc1nc2cc(-c3cc(C)n(C(C)c4ccc(C)nc4)c(=O)c3)c(F)cc2s1` (stereo not drawn) [Example 78, 1-ethyl-3-(6-fluoro-5-{6-methyl-1-[1-(6-methyl-pyridin-3-yl)-ethyl]-2-oxo-1,2-dihydro-pyridin-4-yl}-benzothiazol-2-yl)-urea], 0.25 to 1 µg/mL (≈ 0.537 to 2.15 µM).

As for `CCNC(=O)Nc1nc2cc(-c3ccn(Cc4ncccc4OC)c(=O)c3)c(F)cc2s1` [Example 79, 1-Ethyl-3-{6-fluoro-5-[1-(3-methoxy-pyridin-2-ylmethyl)-2-oxo-1,2-dihydro-pyridin-4-yl]-benzothiazol-2-yl}-urea], the MIC is < 0.25 µg/mL.
